Article PMC4117522, “Proteasome Inhibitors Alter Levels of Intracellular Peptides in HEK293T and SH-SY5Y Cells” (PLoS ONE, 2014)
“And” between values parts separate entries of the source, which are not always exact repeats. Identical values can stand only once. Residues, ends and D or L forms follow the SMILES beside them. *: point of attachment. Cbz = O=C(OCc1ccccc1)*

Tests used:
HEK293T cells = assay: Quantitative peptidomics (TMAB isotopic labels, LC-MS/MS) of inhibitor-treated HEK293T cells; format: cell-based, human; conditions: for change in levels of intracellular peptides (peptidome): HEK293T cells, 35 min, 2.5 µM MG132, 1 µM other inhibitors
Procedure: (§1) HEK293T and SH-SY5Y cells were grown to 80–90% confluence in DMEM and RPMI supplemented with 10% fetal bovine serum and penicillin/streptomycin. A single plate of cells (150 mm×25 mm) was used for each group. At the start of the experiment, media were removed from the plates and cells were washed with DPBS (138 mM NaCl, 8.06 mM Na2HPO4, 2.67 mM KCl, 1.47 mM KH2PO4, 0.9 mM CaCl2 and 0.49 mM MgCl2). This was followed by addition of serum-free media containing the proteasome or aminopeptidase inhibitors, or 0.05% DMSO as a control for the inhibitors that were soluble in DMSO. Each experiment consisted of two control groups and two or three replicate groups of cells treated with one of the inhibitors. The cells were incubated at 37°C for 20 minutes, following which media containing the inhibitor was removed, cells were washed with DPBS, detached from the plate by scraping into DPBS (without trypsin), and centrifuged at 800×g for 5 min. The wash buffer was supplemented with the appropriate inhibitor at the same concentration as used for the treatment, thereby ensuring that the changes induced in peptide levels were not reversed during harvesting of cells due to possible dissociation of the reversible inhibitors. The wash time (including centrifugation) was 15 minutes, for a total treatment time of 35 minutes. After centrifugation, the cell pellet was resuspended in 1 ml of 80°C water and incubated in an 80°C water bath for 20 minutes to inactivate proteases. The mixture was again centrifuged (13,000×g, 30 min, 4°C) and was stored at −80°C overnight. For peptide extraction, the samples were thawed and centrifuged again. The lysate was subsequently cooled on ice and acidified with HCl to a final concentration of 10 mM. After 15 min incubation on ice, the lysate was centrifuged at 13,000×g for 30 min at 4°C. To the supernatant, 250 µL of dibasic sodium phosphate (0.4 M, pH 9.5) was added and the mixture was stored at −80°C until labeling.
(§2) The labeling protocol has been earlier described in detail. Each group within an experiment (control/treated) was labeled with a different isotopic tag. The TMAB-NHS labels were dissolved in DMSO to a concentration of 400 µg/µL and 15 mg of label was used per 150 mm plate of cells. […] At the beginning, the pH of the peptide extract was adjusted to 9.5 with 1 M NaOH. Labeling was performed over 8 rounds; 4.69 µL of the label was added to the extract every 20 min. The pH was measured between each round and if necessary, brought back to 9.5 for the first five rounds. For rounds 6–8, the pH was not adjusted after the addition of the TMAB-NHS reagent. After the final round of label addition, the pH was adjusted to 9.5 again and the extracts were incubated at room temperature for 90 min. Thereafter, 30 µL of 2.5 M glycine was added to quench any unreacted label. Following 40 min incubation at room temperature, the labeled extracts for a single experiment were pooled and filtered through Amicon Ultracel-10 K units. It is important to ensure that only N-terminal amines and lysine side-chain amines of peptides are TMAB-labeled and not tyrosines. To hydrolyze any labeled tyrosine, 30 µL of a 2 M solution of hydroxylamine hydrochloride (pH 3.7) was added over three rounds to the pooled and filtered sample. The pH was measured after the addition of hydroxylamine and adjusted to 9.0 with 1 M NaOH. The samples were desalted through PepClean C-18 spin columns (Thermo Scientific, Rockford, IL, USA) by following manufacturer’s instructions. Peptides were eluted using 160 µL of 0.5% TFA and 70% acetonitrile, frozen at −80°C and then lyophilized in a vacuum centrifuge and stored at −80°C until analysis by mass spectrometry.
(§3) The LC-MS/MS experiments were performed on a Synapt G2 mass spectrometer coupled to a NanoAcquity capillary liquid chromatography system (Waters Co., Milford, MA, USA).

SH-SY5Y cells = assay: Quantitative peptidomics (TMAB isotopic labels, LC-MS/MS) of inhibitor-treated SH-SY5Y cells; format: cell-based, human
Procedure: as §1, §2, §3

## CC[C@H](C)[C@H](NC(=O)[C@H]([C@@H](C)CC)N(C)C(C)=O)C(=O)N[C@H](C(=O)N[C@@H](CC(C)C)C(=O)[C@@]1(C)CO1)[C@@H](C)O [Epox.]
HEK293T cells; 0.2 uM, 1h, HEK
  Relative Levels of peptide AAETVTKGGIMLPEKSQGKVLQA (HSPE1): < 0.20
  Relative Levels of peptide ADKVPKTAENFRAL (PPIA): < 0.20
  Relative Levels of peptide AGAAVDELGKVLTPTQV (PEBP1): < 0.20
  Relative Levels of peptide AKADGIVSKNF (RPS21): < 0.20
  Relative Levels of peptide APIKVGDAIPAVEVF (PRDX5): < 0.20
  Relative Levels of peptide APPTAYIDFARQK (TPI1): 0.58 and 0.64
  Relative Levels of peptide ASQPDVDGFLVGGASLKPEFVDIINA (TPI1): < 0.20
  Relative Levels of peptide ASQPDVDGFLVGGASLKPEFVDIINAKQ (TPI1): 1.17 and 1.09
  Relative Levels of peptide AVDGEPLGRVSF (PPIA): < 0.20
  Relative Levels of peptide Ac-AAPVDLELKKAFTEL (PFDN1): < 0.20
  Relative Levels of peptide Ac-ANLERTFIAIKPDGV (NME2): < 0.20
  Relative Levels of peptide Ac-ASKRALVIL (PARK7): < 0.20
  Relative Levels of peptide Ac-ASKRALVILA (PARK7): < 0.20
  Relative Levels of peptide Ac-MDTSRVQPIKL (RPS28): < 0.20
  Relative Levels of peptide Ac-MDTSRVQPIKLAR (RPS28): 0.95
  Relative Levels of peptide Ac-SSEEGKLFVGGLNF (RBM3): < 0.20
  Relative Levels of peptide Ac-SYGRPPPDVEGMTSLKVDNL (SRSF2): 0.23 and 0.32
  Relative Levels of peptide Ac-[…] (COX6B1): < 0.20
  Relative Levels of peptide EDENFILKHTGPGILSM (PPIA): < 0.20
  Relative Levels of peptide GAIRDIDL (SRSF1): 0.29 and 0.33
  Relative Levels of peptide GFGDLKSPAGLQVL (EEF1B2): < 0.20
  Relative Levels of peptide GISTPEELGLDKV (COX5A): < 0.20
  Relative Levels of peptide GVQVETISPGDGRTFPKRGQT (FKBP1A): 0.72 and 0.45
  Relative Levels of peptide KHTGPGILSM (PPIA): < 0.20
  Relative Levels of peptide PGIVELPTLEEL (NDUFA8): < 0.20
  Relative Levels of peptide SAMTEEAAVAIKAMAK (EIF5A): 0.36 and 0.21
  Relative Levels of peptide SLGELIGTLNA (TPI1): 0.29 and < 0.20
  Relative Levels of peptide VNPTVFFDI (PPIA): < 0.20
HEK293T cells; 2 uM, 1h, HEK
  Relative Levels of peptide AAETVTKGGIMLPEKSQGKVLQA (HSPE1): < 0.20
  Relative Levels of peptide ADKVPKTAENFRAL (PPIA): < 0.20
  Relative Levels of peptide AGAAVDELGKVLTPTQV (PEBP1): < 0.20
  Relative Levels of peptide AKADGIVSKNF (RPS21): < 0.20
  Relative Levels of peptide APIKVGDAIPAVEVF (PRDX5): < 0.20
  Relative Levels of peptide ASQPDVDGFLVGGASLKPEFVDIINA (TPI1): < 0.20
  Relative Levels of peptide ASQPDVDGFLVGGASLKPEFVDIINAKQ (TPI1): < 0.20
  Relative Levels of peptide AVDGEPLGRVSF (PPIA): < 0.20
  Relative Levels of peptide Ac-AAPVDLELKKAFTEL (PFDN1): < 0.20
  Relative Levels of peptide Ac-AEEGIAAGGVMDVNTALQEVLKT (RPS12): 0.61 and 0.42
  Relative Levels of peptide Ac-ANLERTFIAIKPDGV (NME2): < 0.20
  Relative Levels of peptide Ac-ASKRALVIL (PARK7): < 0.20
  Relative Levels of peptide Ac-ASKRALVILA (PARK7): < 0.20
  Relative Levels of peptide Ac-MDTSRVQPIKL (RPS28): < 0.20
  Relative Levels of peptide Ac-MDTSRVQPIKLAR (RPS28): 0.64 and 0.94
  Relative Levels of peptide Ac-MDTSRVQPIKLARVTKV (RPS28): < 0.20
  Relative Levels of peptide Ac-SSEEGKLFVGGLNF (RBM3): < 0.20
  Relative Levels of peptide Ac-SYGRPPPDVEGMTSLKVDNL (SRSF2): < 0.20
  Relative Levels of peptide EDENFILKHTGPGILSM (PPIA): < 0.20
  Relative Levels of peptide GESDDSILRLAKADGIVSKNF (RPS21): < 0.20
  Relative Levels of peptide GFGDLKSPAGLQVL (EEF1B2): 0.54 and 0.68
  Relative Levels of peptide GISTPEELGLDKV (COX5A): 0.38 and 0.45
  Relative Levels of peptide KHTGPGILSM (PPIA): < 0.20
  Relative Levels of peptide PGIVELPTLEEL (NDUFA8): < 0.20
  Relative Levels of peptide SAMTEEAAVAIKAMAK (EIF5A): < 0.20
  Relative Levels of peptide SLGELIGTLNA (TPI1): 0.52 and 0.30
  Relative Levels of peptide VNPTVFFDI (PPIA): < 0.20

## CC(=O)N[C@@H](CSC(=O)[C@]1([C@@H](O)C(C)C)NC(=O)[C@H](C)[C@@H]1O)C(=O)O [Lactacys]
HEK293T cells; 1 uM, 35', HEK
  Relative Levels of peptide AKADGIVSKNF (RPS21): 0.16 and 0.15
  Relative Levels of peptide Ac-ASKRALVIL (PARK7): < 0.20 and 0.26
  Relative Levels of peptide Ac-ASKRALVILA (PARK7): 0.29 and 0.31
  Relative Levels of peptide Ac-MDTSRVQPIKL (RPS28): 0.31 and 0.28
  Relative Levels of peptide Ac-MDTSRVQPIKLAR (RPS28): 0.52 and 0.70
  Relative Levels of peptide Ac-SSEEGKLFVGGLNF (RBM3): 0.39 and 0.30
  Relative Levels of peptide Ac-SYGRPPPDVEGMTSLKVDNL (SRSF2): 0.40 and 0.50
  Relative Levels of peptide GAIRDIDL (SRSF1): < 0.20
  Relative Levels of peptide GFGDLKSPAGLQVL (EEF1B2): 0.19 and 0.14
  Relative Levels of peptide GVQVETISPGDGRTFPKRGQT (FKBP1A): 0.31 and 0.26
  Relative Levels of peptide KHTGPGILSM (PPIA): 0.25 and 0.22

## CC(=O)N[C@@H](CSC(=O)[C@]1([C@@H](O)C(C)C)NC(=O)[C@H](C)[C@@H]1O)C(=O)O [Lactacystin]
SH-SY5Y cells; 1 uM, 35', SH-SY5Y
  Relative Levels of peptide ADKVPKTAENFRAL (PPIA): < 0.20
  Relative Levels of peptide Ac-AAPVDLELKKAFTEL (PFDN1): < 0.20
  Relative Levels of peptide Ac-ASKRALVIL (PARK7): 0.25 and < 0.20 and 0.21
  Relative Levels of peptide Ac-ASKRALVILA (PARK7): 0.52 and 0.32 and 0.42
  Relative Levels of peptide Ac-MDTSRVQPIKL (RPS28): 0.47 and 0.49 and 0.51
  Relative Levels of peptide Ac-SSEEGKLFVGGLNF (RBM3): 0.55 and 0.38 and 0.49
  Relative Levels of peptide Ac-SYGRPPPDVEGMTSLKVDNL (SRSF2): 0.63 and 0.36 and 0.45
  Relative Levels of peptide GAIRDIDL (SRSF1): < 0.20
  Relative Levels of peptide KHTGPGILSM (PPIA): 0.26 and 0.24 and 0.25

## CC(C)C[C@@H](C=O)NC(=O)[C@H](CC(C)C)NC(=O)[C@H](CC(C)C)NC(=O)OCc1ccccc1 [MG132, reference compound] (Cbz-Leu-Leu-Leu-aldehyde)
HEK293T cells
  change in levels of intracellular peptides (peptidome): the majority of peptides was greatly decreased

## CC(C)C[C@H](NC(=O)[C@H](CCc1ccccc1)NC(=O)CN1CCOCC1)C(=O)N[C@@H](Cc1ccccc1)C(=O)N[C@@H](CC(C)C)C(=O)[C@@]1(C)CO1 [carfilzomib, reference compound]
SH-SY5Y cells; SH-SY5Y cells, 35 min, 2.5 µM MG132, 1 µM other inhibitors
  change in levels of intracellular peptides (peptidome): decreased the levels of many peptides but also elevated levels of a number of other peptides
HEK293T cells
  change in levels of intracellular peptides (peptidome): decreased the levels of many peptides but also elevated levels of a number of other peptides
